Consider 1 substance from patent US20070054868A1, “Synergistic polyphenol compounds, compositions thereof, and uses thereof” (The Trustees of Columbia University in the City of New York, priority 2005, published 2007).

This test has as its system EGFR, ERK1, ERK2, and AKT. Description: Phosphorylation of signaling proteins in HT29 cells. The test is classed as cell-based, human. How it is done: These effects were detected with as little as […] of EGCG, and within 5 minutes. Phosphorylation of EGFR, ERK1, ERK2, and AKT were suppressed in cells treated with methyl-β-cyclodextrin, which depletes plasma membrane cholesterol. […] In addition, the inhibitory effect of EGCG on phosphorylation of EGFR was not blocked by the addition of cholesterol on the growth medium. These findings provide evidence that EGCG can alter membrane domain organization in colon cancer cells ant that this is not due to cholesterol depletion. It was noted that pre-treatment of the cells with EGCG or Poly E inhibited the binding of Alexa 488-labeled EGF to the cell surface receptor EGFR.

Turning to “methyl-β-cyclodextrin [reference compound]”, the “phosphorylation of EGFR, ERK1, ERK2, and AKT” value was “suppressed”.
